In US5719145A, “Amidine derivatives and platelet aggregation inhibitor containing the same” (Mitsui Toatsu Chemicals, Inc., priority 1996, dated 1998):
Where a name gives a salt, the structure may show the parent alone.

What was measured:
[1] = test system: human platelets (platelet-rich plasma); test: In vitro inhibition of platelet aggregation in human (ADP-induced, PRP); assay type: cell-based; settings: ADP final concentration 5 μM, read-out: Platelet aggregation inhibitory activity in human, IC50
Experimental: 2. Inhibition of platelet aggregation in human
Blood was collected from healthy human volunteers with an injection syringe and mixed one volume of 3.8% of sodium citrate as an anticoagulant to 9 volumes of the blood. Successively, the obtained blood mixture was subjected to centrifugation at 120×g for 15 minutes at room temperature to obtain platelet-rich plasma (PRP). An aliquot of PRP was further subjected to centrifugation at 1,200×g for 20 minutes to obtain platelet-poor plasma (PPP). Numbers of the platelet were measured with an automatic platelet counter: Sysmex PL-100 (manufactured by Toa Iyodenshi Co.) and PRP was diluted with PPP so as to adjust a platelet concentration to be about 250,000 particles/μl. Platelet aggregation was measured by the following procedure with a 6 channel aggregometer: HEMA TRACER 1 (manufactured by NKK Co.)
(§1) After incubation of 240 μl of PRP at 37° C. for 2 minutes, 30 μl of the solvent of specimen as a control or the specimen in various concentrations was added to PRP. Further 2 minutes later, 30 μl of adenosine diphosphate (final concentration: 5 μM) was added to induce platelet aggregation. An inhibition percentage was obtained by comparing the maximum aggregation of the specimen drug group with that of control. […]

[2] = target: T1, human fibrinogen receptor GP IIb/IIIa (Homo sapiens, UniProt P05106+P08514); test: Binding inhibition of biotinylated fibrinogen to GP IIb/IIIa; settings: purified human GP IIb/IIIa, read-out: Inhibition of GPIIb/IIIa . Fibrinogen Binding, IC50
T1 construct: Concentrated and lyophilized human platelet (20 vial) (Organon Teknika Co.) was lysed; tissue Organon Teknika Co; host or cells: human platelets (lyophilized), lysed in Triton X-100
Experimental: Experiment for binding inhibition between GP IIb/IIIa and fibrinogen
1. Purification of human fibrinogen receptor GP IIb/IIIa
Concentrated and lyophilized human platelet (20 vial) (Organon Teknika Co.) was lysed in an antienzymic solution (80 ml) (1% Triton X-100, 10 mM Tris-HCl, 150 mM NaCl, 1 mM CaCl2, 10 μM leupeptin, 1 mM phenylmethane sulfonyl fluoride, pH 7.4), allowed to incubate for an hour at 4° C., and centrifuged at 30,000×g for 15 minutes to recover the supernatant solution containing 150 mg of protein. The GP IIb/IIIa was purified according to the method of Phillips et al. [Methods in Enzymology Vol. 215, (J. J. Hawigar, Eds.), 244-263, Acedemic Press Inc., San Diego].
2. Preparation of biotinylated fibrinogen
Human fibrinogen Grade L (KABI Co.) was purified by using Shepharose CL-6B and Lysine-Sepharose. Thus purified human fibrinogen (2.3 mg/ml) was dialyzed for 3 hours with 0.1M aqueous sodium bicarbonate solution at room temperature and successively diluted to 1 mg/ml. To the solution (4.5 ml) obtained, NHC-LC-Biotin (2 mg) (Pierce Co.) was added and reacted for 1 hour at room temperature to biotinylate fibrinogen. The reaction mixture was dialyzed at 4° C. for 24 hours with TBS (20 mM Tris-HCl, 150 mM NaCl, 1 mM CaCl2, 1 mM MgCl2, pH 7.4) to obtain biotinylated fibrinogen.
3. Binding inhibition of biotinylated fibrinogen to GP IIb/IIIa
Specimen drugs were dissolved and diluted with TBS containing 1% BSA. To each solution, an equal volume of biotinylated fibrinogen (2 μg/ml) dissolved in TBS containing 1% BSA, was added. The inhibition percentage of specimen drugs were measured by the method of Mori et al. [Jpn. J. Thromb. Hemost., 2, 323-399 (1991) with small modification].
Purified GP IIb/IIIa was diluted to 1.5 μg/ml in TBS containing 0.0005% of Triton X-100. The GP IIb/IIIa solution was added to a 96 well microplate (E.I.A/R.I.A. Plate, Costar Co.) in a volume of 100 μl for each well, and incubated at 4° C. for 24 hours to immobilize GP IIb/IIIa. The microplate was washed twice with a washing solution (TBS containing 0.01% of Tween 20). Thereafter TBS containing 3.5% of BSA was added to each well in a volume of 200 μl and blocking was carried out for about an hour at room temperature. The microplate was further washed twice with the washing solution, and successively a mixture of the specimen drug and the biotinylated fibrinogen was added in a volume of 100 μl/well and incubated for 24 hours at room temperature. The microplate was thereafter washed five times, and peroxidase-labeled streptoavidin (a kit of Amersham Co.) which was previously diluted 3000 times with TBS was added in a volume of 100 μl/well and incubated for about 30 minutes at room temperature. After washing the microplate 5 times, a 0.05M phosphate-citrate buffer solution (pH5) containing o-phenylenediamine(0.4 mg/ml) (manufactured by Sigma Co.) and H2 O2 (0.012%) was added in a volume of 200 μl/well to develop color for 20-40 minutes. The reaction was stopped by addition of 0.3M sulfuric acid in a volume of 50 μl/well and absorbance at 490 nm was measured with Immunoreader NJ-200 (manufactured by Inter Med Co.). […]

[3] = test system: guinea pig platelets (platelet-rich plasma); test: In vitro inhibition of platelet aggregation in guinea pig (ADP-induced, PRP); assay type: cell-based; settings: Cavia porcellus, ADP final concentration 5 μM, read-out: Platelet aggregation inhibitory activity in guinea pig, IC50
Experimental: In vitro experiment of platelet aggregation inhibition
1. Inhibition of platelet aggregation in Guinea pig
Blood of male guinea pig was collected with an injection syringe which contains 3.8 % sodium citrate as an anticoagulant in a ratio of 1 volume to 9 volumes of the blood. Successively, the collected blood mixture was subjected to centrifugation at 120×g for 15 minutes at room temperature to obtain platelet-rich plasma (PRP). An aliquot of PRP was further subjected to centrifugation at 1,200×g for 15 minutes to obtain platelet-poor plasma (PPP). Numbers of the platelet in PRP were measured with an automatic platelet counter: Sysmex PL-100 (manufactured by Toa Iyodenshi Co.) and PRP was diluted with PPP so as to adjust a platelet concentration to be about 300,000 particles/ μl. Platelet aggregation was measured by the following procedure with a 6 channel aggregometer: HEMA TRACER 1 (manufactured by NKK Co.).
as §1, with “control or of the specimen” for “control or the specimen”, “(final concentration: 5μM) was added” for “(final concentration: 5 μM) was added”

[4] = test system: guinea pig platelets (platelet-rich plasma); test: Inhibition against platelet aggregation ability after oral administration in guinea pig; assay type: in vivo; settings: Cavia porcellus, 1 h, oral administration: 37 μmol/kg, blood collected after an hour, ADP 5 μM, read-out: Aggregation inhibiting rate (%)
Experimental: Experiment for inhibition against platelet aggregation ability after oral administration The specimen drug was dissolved or suspended at a concentration of 18.5 μmol/ml in a physiological saline containing 0.5% of Tween 80. […] A physiological saline containing 0.5% of Tween 80 was similarly administered as a control. […] The blood mixture was centrifuged at 800 r.p.m. for 20 minutes at room temperature to obtain PRP in the upper layer. The lower layer was further centrifuged at 3000 r.p.m. for 15 minutes to obtain PPP in upper layer. […] Platelet aggregation ability was measured according to the method for measuring in vitro platelet aggregation. […] HEMA TRACER 1 (manufactured by NKK Co.). After incubation of PRP at 37° C. for 2 minutes, a physiological saline (30 μl) was added. […] An inhibiting ratio was obtained by comparing the maximum aggregation of the specimen drug group with that of control.

T1 sequence (P08514 32-887 limits assumed): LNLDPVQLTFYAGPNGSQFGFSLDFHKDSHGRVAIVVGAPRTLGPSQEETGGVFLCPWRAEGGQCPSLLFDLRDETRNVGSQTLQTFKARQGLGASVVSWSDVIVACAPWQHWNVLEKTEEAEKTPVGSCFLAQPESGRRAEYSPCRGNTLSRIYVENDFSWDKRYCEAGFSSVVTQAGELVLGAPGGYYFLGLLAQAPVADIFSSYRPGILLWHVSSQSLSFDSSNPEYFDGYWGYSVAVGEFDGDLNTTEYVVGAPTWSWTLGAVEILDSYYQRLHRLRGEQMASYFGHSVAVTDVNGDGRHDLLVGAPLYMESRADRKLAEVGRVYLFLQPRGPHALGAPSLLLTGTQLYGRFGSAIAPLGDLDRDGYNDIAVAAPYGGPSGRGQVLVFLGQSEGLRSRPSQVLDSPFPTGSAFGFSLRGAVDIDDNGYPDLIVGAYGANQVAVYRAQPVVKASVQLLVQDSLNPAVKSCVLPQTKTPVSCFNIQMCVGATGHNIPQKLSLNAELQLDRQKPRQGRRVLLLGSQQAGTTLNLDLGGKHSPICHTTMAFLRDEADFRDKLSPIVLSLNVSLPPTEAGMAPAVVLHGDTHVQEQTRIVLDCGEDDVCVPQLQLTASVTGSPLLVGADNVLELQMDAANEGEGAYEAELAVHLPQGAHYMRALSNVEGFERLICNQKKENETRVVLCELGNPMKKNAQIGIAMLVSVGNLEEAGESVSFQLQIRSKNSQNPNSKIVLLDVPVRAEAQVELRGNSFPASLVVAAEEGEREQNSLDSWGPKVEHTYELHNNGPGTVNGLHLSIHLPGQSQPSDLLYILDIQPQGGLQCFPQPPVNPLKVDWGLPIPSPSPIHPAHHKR
T1 sequence (P08514 891-1039 partner limits assumed): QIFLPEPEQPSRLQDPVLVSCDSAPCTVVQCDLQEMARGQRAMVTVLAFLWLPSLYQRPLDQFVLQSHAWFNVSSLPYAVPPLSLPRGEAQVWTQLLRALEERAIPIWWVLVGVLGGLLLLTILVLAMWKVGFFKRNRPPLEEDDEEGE
T1 sequence (P05106 27-788): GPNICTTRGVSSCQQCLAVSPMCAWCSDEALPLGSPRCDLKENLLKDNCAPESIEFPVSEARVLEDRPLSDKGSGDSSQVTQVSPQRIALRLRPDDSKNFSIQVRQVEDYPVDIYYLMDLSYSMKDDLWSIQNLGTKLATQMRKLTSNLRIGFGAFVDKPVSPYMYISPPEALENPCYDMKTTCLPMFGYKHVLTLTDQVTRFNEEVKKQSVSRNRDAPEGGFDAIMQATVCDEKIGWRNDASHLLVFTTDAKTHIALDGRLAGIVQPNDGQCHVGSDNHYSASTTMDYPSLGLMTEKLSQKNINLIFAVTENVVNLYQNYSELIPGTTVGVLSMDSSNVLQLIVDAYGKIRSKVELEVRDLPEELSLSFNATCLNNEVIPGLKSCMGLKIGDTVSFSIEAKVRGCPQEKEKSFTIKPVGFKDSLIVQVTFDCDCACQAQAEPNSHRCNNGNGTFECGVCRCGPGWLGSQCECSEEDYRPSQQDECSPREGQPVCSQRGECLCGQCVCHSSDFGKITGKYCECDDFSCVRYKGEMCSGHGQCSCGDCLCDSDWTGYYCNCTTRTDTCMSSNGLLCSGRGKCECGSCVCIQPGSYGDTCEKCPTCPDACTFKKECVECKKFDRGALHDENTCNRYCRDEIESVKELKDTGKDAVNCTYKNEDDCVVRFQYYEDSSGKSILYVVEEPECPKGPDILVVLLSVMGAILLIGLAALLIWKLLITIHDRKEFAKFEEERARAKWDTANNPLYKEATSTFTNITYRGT

## C#CCNC(=N)c1ccc(C(=O)Nc2ccc3c(c2)CC(CC(=O)O)CO3)cc1 (centres unmarked) [Example 27, 6-[[4-(N^2-propargylamidino)benzoyl]amino]chroman-3-acetic acid hydrochloride]
[1]
  IC50: 78 nM

## C#CCN(C)C(=N)c1ccc(C(=O)Nc2ccc3c(c2)CC(CC(=O)O)CC3)cc1 (centres unmarked) [Example 35, 7-[[4-(N^2-methyl-N^2-propargylamidino)benzoyl]amino]-1,2,3,4-tetrahydronaphthalene-2-acetic acid hydrochloride]
[1]
  IC50: 160 nM

## C#CCN=C(N)c1ccc(C(=O)Nc2ccc3c(c2)CC(CC(=O)O)CC3)cc1 (centres unmarked) [Example 25, 7-[[4-(N^2-propargylamidino)benzoyl]amino]-1,2,3,4-tetrahydronaphthalene-2-acetic acid hydrochloride]
[1]
  IC50: 100 nM
[2]
  IC50: 0.18 nM
[3]
  IC50: 280 nM

## NC(=NCc1ccco1)c1ccc(C(=O)Nc2ccc3c(c2)CC(CC(=O)O)CC3)cc1 (centres unmarked) [Example 30, 7-[[4-[N^2-(2-furfuryl)amidino]benzoyl]amino]-1,2,3,4-tetrahydronaphthalene-2-aceticacid hydrochloride]
[2]
  IC50: 0.14 nM
[3]
  IC50: 180 nM

## N=C(NCc1cccs1)c1ccc(C(=O)Nc2ccc3c(c2)CC(CC(=O)O)CC3)cc1 (centres unmarked) [Example 37, 7-[[4-[N^2-(2-thenyl)amidino]benzoyl]amino]-1,2,3,4-tetrahydronaphthalene-2-acetic acid hydrochloride]
[2]
  IC50: 0.04 nM
[3]
  IC50: 220 nM

## CCOC(=O)CC1COc2ccc(NC(=O)c3ccc(C(=N)NCc4ccco4)cc3)cc2C1 (centres unmarked) [Example 31, ethyl 6-[[4-[N^2-(2-furfuryl)amidino]benzoyl]amino]chroman-3-acetate hydrochloride]
[4]
  inhibition at 37 µmol/kg: > 90%
[3]
  IC50: 140 nM

## CCOC(=O)CC1CCc2ccc(NC(=O)c3ccc(C(=N)N4CCCC4)cc3)cc2C1 (centres unmarked) [Example 21, ethyl 7-[[4-(pyrrolidinoiminomethyl)benzoyl]amino]-1,2,3,4-tetrahydronaphthalene-2-acetate hydrochloride]
[4]
  inhibition at 37 µmol/kg: > 90%
[3]
  IC50: 94 nM

## C#CCNC(=N)c1ccc(C(=O)Nc2ccc3c(c2)CC(CC(=O)OCC)CO3)cc1 (centres unmarked) [Example 26, ethyl 6-[[4-(N^2-propargylamidino)benzoyl]amino]chroman-3-acetate hydrochloride]
[4]
  inhibition at 37 µmol/kg: > 90%
[3]
  IC50: 190 nM

## CCOC(=O)CC1CCc2ccc(NC(=O)c3ccc(C(=N)N4CCCCC4)cc3)cc2C1 (centres unmarked) [Example 17, ethyl 7-[[4-(piperidinoiminomethyl)benzoyl]amino]-1,2,3,4-tetrahydronaphthalene-2-acetate hydrochloride]
[4]
  inhibition at 37 µmol/kg: > 90%
[3]
  IC50: 270 nM

## N=C(NCc1ccco1)c1ccc(C(=O)Nc2ccc3c(c2)CN(CC(=O)O)CC3)cc1 [Example 33, 7-[[4-[N^2-(2-furfuryl)amidino]benzoyl]amino]-1,2,3,4-tetrahydroisoquinoline-2-acetic acid dihydrochloride]
[1]
  IC50: 160 nM

## CCOC(=O)CC1CCc2ccc(NC(=O)c3ccc(C(=N)N4CCOCC4)cc3)cc2C1 (centres unmarked) [Example 1, ethyl 7-[[4-(morpholinoiminomethyl)benzoyl]amino]-1,2,3,4-tetrahydronaphthalene-2-acetate hydrochloride]
[4]
  inhibition at 37 µmol/kg: > 90%
[3]
  IC50: 180 nM

## N=C(c1ccc(C(=O)Nc2ccc3c(c2)CC(CC(=O)O)CO3)cc1)N1CCOCC1 (centres unmarked) [Example 5, 6-[[4-(morpholinoiminomethyl)benzoyl]amino]chroman-3-acetic acid hydrochloride]
[1]
  IC50: 66 nM

## N=C(c1ccc(C(=O)Nc2ccc3c(c2)OCC(CC(=O)O)C3)cc1)N1CCOCC1 (centres unmarked) [Example 9, 7-[[4-(morpholinoiminomethyl)benzoyl]amino]chroman-3-acetic acid hydrochloride]
[1]
  IC50: 171 nM

## CN1CCN(C(=N)c2ccc(C(=O)Nc3ccc4c(c3)CC(CC(=O)O)CC4)cc2)CC1 (centres unmarked) [Example 15, dihydrochloride]
[1]
  IC50: 110 nM

## N=C(c1ccc(C(=O)Nc2ccc3c(c2)CC(CC(=O)O)CC3)cc1)N1CCCCC1 (centres unmarked) [Example 18, 7-[[4-(piperidinoiminomethyl)benzoyl]amino]-1,2,3,4-tetrahydronaphthalene-2-acetic acid hydrochloride]
[1]
  IC50: 140 nM
[2]
  IC50: 0.26 nM

## CCOC(=O)CC1CCc2ccc(NC(=O)c3ccc(C(=N)N4CCCCCC4)cc3)cc2C1 (centres unmarked) [Example 22, ethyl 7-[[4-(homopiperidinoiminomethyl)benzoyl]amino]-1,2,3,4-tetrahydronaphthalene-2-acetate hydrochloride]
[4]
  inhibition at 37 µmol/kg: > 90%
[3]
  IC50: 250 nM

## CCOC(=O)CC1COc2ccc(NC(=O)c3ccc(C(=N)N4CCOCC4)cc3)cc2C1 (centres unmarked) [Example 4, ethyl 6-[[4-(morpholinoiminomethyl)benzoyl]amino]chroman-3-acetate hydrochloride]
[4]
  inhibition at 37 µmol/kg: > 90%
[3]
  IC50: 120 nM
